Publication PMC4721062, “Oxadiazole-2-oxides may have other functional targets, in addition to SjTGR, through which they cause mortality in Schistosoma japonicum” (Parasites & Vectors, 2016)
Read-outs that look alike come from different tables or passages of the source.

Legend:
[1] = tested on: juvenile S. japonicum; experiment: microbe, parasite or virus in culture; type: cell-based; conditions: for mortality at 100 µM / killing at 2 µM / killing at 5 µM / killing at 50 µM / mortality at 50 µM: Schistosoma japonicum; for mortality at 100 µM / mortality at 50 µM: read-out: Mortality of juvenile worms; for killing at 2 µM / killing at 5 µM / killing at 50 µM / Killing activity 24hr / Killing activity 48hr / Killing activity 72hr: juvenile worms; for Killing activity 24hr / Killing activity 48hr / Killing activity 72hr: 10 μM
Method in brief: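 Juvenile S. japonicum, 20–30 tail-shed cercariae per well, were exposed to compounds at 2, 5, 10 and 50 μM in RPMI 1640 with 10% FBS and HEPES. Survival was scored microscopically at 24, 48 and 72 h, with death defined by disrupted internal structure or tegument or 1 min without motility. % D is dead/total, averaged over three experiments.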

[2] = tested on: adult S. japonicum; experiment: microbe, parasite or virus in culture; type: cell-based; conditions: for killing at 25 µM / killing at 50 µM / killing at 100 µM / Killing activity 24hr / Killing activity 48hr / Killing activity 72hr: adult worms; for Killing activity 24hr / Killing activity 48hr / Killing activity 72hr: 10 μM
Method in brief: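 Adult worm pairs recovered by portal perfusion from ICR mice 35 days after infection with 50 cercariae, cultured in RPMI 1640 (pH 7.5, 20 mM HEPES, 10% FBS) at 37 °C, 5% CO2. Oxadiazole-2-oxides at 10, 25, 50, 100 μM; motility and survival scored microscopically at 24, 48, 72 h, death being no movement over 2 min; three independent experiments averaged.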

[3] = 24 h, read-out: Killing activity 24hr
[4] = 48 h, read-out: Killing activity 48hr
[5] = 72 h, read-out: Killing activity 72hr
[6] = Schistosoma japonicum, 24 h, read-out: Killing activity 24hr
[7] = Schistosoma japonicum, 48 h, read-out: Killing activity 48hr
[8] = Schistosoma japonicum, 72 h, read-out: Killing activity 72hr
[9] = Schistosoma japonicum, 24 h, read-out: Mortality of adult worms
[10] = Schistosoma japonicum, 72 h, read-out: Mortality of adult worms

Row | SMILES | killing at 2 µM [1, 3] | killing at 2 µM [1, 4] | killing at 2 µM [1, 5] | killing at 5 µM [1, 3] | killing at 5 µM [1, 4] | killing at 5 µM [1, 5] | killing at 50 µM [1, 3] | killing at 50 µM [1, 4] | killing at 50 µM [1, 5] | Killing activity 24hr ([1]; 24 h) | Killing activity 48hr ([1]; 48 h) | Killing activity 72hr ([1]; 72 h) | killing at 25 µM [2, 6] | killing at 25 µM [2, 7] | killing at 25 µM [2, 8] | killing at 50 µM [2, 6] | killing at 50 µM [2, 7] | killing at 50 µM [2, 8] | killing at 100 µM [2, 6] | killing at 100 µM [2, 7] | also measured
1 | COc1ccc(-c2no[n+]([O-])c2CO)cc1 [Compound 4a] | 29.4% | 35.3% | 44.1% | 36.2% | 48.9% | 53.2% | 56.8% | 88.6% | 90.9% | 26.7%D | 37.8%D | 58.9%D | 50% | 100% | 100% | 88.9% | 100% | 100% | 100% | 100% | mortality at 100 µM ([1]; 72 h): 90 ± 2.8%; mortality at 100 µM ([2]; Schistosoma japonicum, read-out: Mortality of adult worms): 100%; killing at 100 µM [2, 8]: 100%; Killing activity 24hr ([2]; 24 h): 37.5%D; Killing activity 48hr ([2]; 48 h): 37.5%D; Killing activity 72hr ([2]; 72 h): 50.0%D
2 | Cc1ccc(-c2no[n+]([O-])c2CO)cc1 [Compound 4b] | 35.2% | 35.2% | 42.3% | 42.9% | 46.9% | 51% | 76.5% | 88.2% | 100% | 48.0%D | 50.0%D | 60.0%D | 63.6% | 81.8% | 66.7% | 60% | 80% | 100% | 57.1% | 100% | mortality at 50 µM ([1]; 24 h): > 70%; mortality at 100 µM ([1]; 72 h): 100%; mortality at 100 µM [2, 9]: 57.1 ± 2.1%; mortality at 100 µM ([2]; Schistosoma japonicum, 48 h, read-out: Mortality of adult worms): 100%; killing at 100 µM [2, 8]: 100%; Killing activity 24hr ([2]; 24 h): n.e.; Killing activity 48hr ([2]; 48 h): n.e.; Killing activity 72hr ([2]; 72 h): n.e.
3 | COc1ccc(-c2no[n+]([O-])c2C#N)cc1 [Compound 7a] | 14.6% | 29.2% | 41.7% | 15.7% | 39.2% | 39.2% | 46.2% | 53.3% | 70% | 36.7%D | 36.7%D | 60.0%D | 88.9% | 100% | 100% | 87.5% | 100% | 100% | 100% | 100% | mortality at 25 µM [2, 9]: > 75%; mortality at 10 µM [2, 10]: 100%; killing at 100 µM [2, 8]: 100%; Killing activity 24hr ([2]; 24 h): 70.0%D; Killing activity 48hr ([2]; 48 h): 100.0%D; Killing activity 72hr ([2]; 72 h): 100.0%D
4 | Cc1ccc(-c2no[n+]([O-])c2C#N)cc1 [Compound 7b] | 16% | 26.6% | 31.9% | 21.1% | 26.3% | 36.8% | 47.5% | 55.9% | 57.6% | 23.8%D | 33.3%D | 57.1%D | 100% | 100% | 100% | 100% | 100% | 100% | 100% | 100% | mortality at 25 µM [2, 9]: > 75%; mortality at 10 µM [2, 10]: 83.3 ± 4.7%; killing at 100 µM [2, 8]: 100%; Killing activity 24hr ([2]; 24 h): 16.7%D; Killing activity 48hr ([2]; 48 h): 50.0%D; Killing activity 72hr ([2]; 72 h): 83.3%D
5 | N#Cc1c(-c2ccc(Br)cc2)no[n+]1[O-] [Compound 7c] | 100% | 100% | 100% | 100% | 100% | 100% | 100% | 100% | 100% | 100.0%D | 100.0%D | 100.0%D | 77.8% | 100% | 100% | 100% | 100% | 100% | 100% | 100% | mortality at 50 µM ([1]; 24 h): > 70%; mortality at 50 µM ([1]; 72 h): 100%; mortality at 25 µM [2, 9]: > 75%; mortality at 50 µM [2, 9]: 100%; mortality at 10 µM [2, 10]: 70 ± 7.1%; killing at 100 µM [2, 8]: 100%; Killing activity 24hr ([2]; 24 h): n.e.; Killing activity 48hr ([2]; 48 h): 70.0%D; Killing activity 72hr ([2]; 72 h): 70.0%D
6 | N#Cc1c(-c2ccc(O)cc2)no[n+]1[O-] [Compound 8] | 12% | 18% | 21% | 12.8% | 23% | 46.2% | 26.8% | 28.2% | 33.8% | 15.1%D | 23.3%D | 25.6%D | 50% | 66.7% | 100% | 77.8% | 88.9% | 100% | 100% | 100% | mortality at 50 µM ([1]; 24 h): < 30%; mortality at 10 µM [2, 10]: 71.4 ± 0.9%; killing at 100 µM [2, 8]: 100%; Killing activity 24hr ([2]; 24 h): n.e.; Killing activity 48hr ([2]; 48 h): 57.1%D; Killing activity 72hr ([2]; 72 h): 71.4%D
